Values after ≈ are worked out from the molar mass of the structure shown.

For the first data set, the system named is S. aureus A798. The data set can be described thus: Bacterial growth minimal inhibitory concentrations (microdilution, cation-adjusted Mueller-Hinton Broth). The class given is cell-based. Conditions: Staphylococcus aureus, microdilution. The procedure: Minimal inhibitory concentrations (MICs; mg/l) were determined in cation-adjusted Mueller-Hinton Broth by a microdilution method following the description given in “Methods for Dilution Antimicrobial Susceptibility Tests for Bacteria that Grow Aerobically”, Approved standard, 7th ed., Clinical and Laboratory Standards Institute (CLSI) Document M7-A7, Wayne, Pa., USA, 2006.
For orientation: Broth dilution looks for growth in wells or tubes with falling amounts of substance.
As a reminder, the MIC is the smallest concentration in the dilution series that meets the test's criterion for growth inhibition. A low value points to a more susceptible organism. Take `[2H][C@](O)(Cc1c(F)cnc2ccc(OC)nc12)[C@@H]1CC[C@@H](NCc2cc3c(cn2)OCCO3)CO1` (single isomer, unassigned) [Example 18]: the MIC was at most 0.031 µg/mL.
Turning to `COc1ccc2nccc(C[C@H](O)[C@@H]3CC[C@@H](NCc4cc5c(cn4)OCCO5)CO3)c2n1` [Example 1, (1S)-1-{(2S,5R)-5-[(2,3-dihydro-[1,4]dioxino[2,3-c]pyridin-7-ylmethyl)-amino]tetrahydro-pyran-2-yl}-2-(6-methoxy-[1,5]naphthyridin-4-yl)-ethanol], the MIC was at most 0.031 µg/mL.
`COc1ccc2nccc(C[C@H](O)[C@@H]3CC[C@@H](NCc4cc5c(nn4)OCCO5)CO3)c2n1` [Example 2, (1S)-1-{(2S,5R)-5-[(6,7-dihydro-[1,4]dioxino[2,3-c]pyridazin-3-ylmethyl)-amino]-tetrahydro-pyran-2-yl}-2-(6-methoxy-[1,5]naphthyridin-4-yl)-ethanol] had a minimum inhibitory concentration (MIC) of 0.25 µg/mL (≈ 0.551 µM).
As to `COc1ccc2ccc(F)c(C[C@H](O)[C@@H]3CC[C@@H](NCc4cc5c(cn4)OCCO5)CO3)c2n1` [Example 5, (1S)-1-{(2S,5R)-5-[(2,3-dihydro-[1,4]dioxino[2,3-c]pyridin-7-ylmethyl)-amino]-tetrahydro-pyran-2-yl}-2-(7-fluoro-2-methoxy-quinolin-8-yl)-ethanol], the minimal inhibitory concentration (MIC) is at most 0.031 µg/mL.
Compound `COc1ccc2ncc(F)c(C[C@H](O)[C@@H]3CC[C@@H](NCc4cc5c(cn4)OCCS5)CO3)c2n1` [Example 6, (1S)-1-{(2S,5R)-5-[(2,3-dihydro-4-oxa-1-thia-6-aza-naphthalen-7-ylmethyl)-amino]-tetrahydro-pyran-2-yl}-2-(3-fluoro-6-methoxy-[1,5]naphthyridin-4-yl)-ethanol] had a minimal inhibitory concentration (MIC) of at most 0.031 µg/mL.
The same measure, in the same setting: in the case of `COc1ccc2ccc(F)c(C[C@H](O)[C@@H]3CC[C@@H](NCc4cc5c(cn4)OCCS5)CO3)c2n1` [Example 7, (1S)-1-{(2S,5R)-5-[(2,3-dihydro-4-oxa-1-thia-6-aza-naphthalen-7-ylmethyl)-amino]-tetrahydro-pyran-2-yl}-2-(7-fluoro-2-methoxy-quinolin-8-yl)-ethanol] it was at most 0.031 µg/mL.
Still for that read-out and setting: to `COc1ccc2ncc(F)c(C[C@H](O)[C@@H]3CC[C@@H](NCc4cc5c(cn4)OCS5)CO3)c2n1` [Example 8, (1S)-2-(3-fluoro-6-methoxy-[1,5]naphthyridin-4-yl)-1-{(2S,5R)-5-[(3-oxa-1-thia-5-aza-indan-6-ylmethyl)-amino]tetrahydro-pyran-2-yl}-ethanol] belongs at most 0.031 µg/mL; to `COc1ccc2ccc(F)c(C[C@H](O)[C@@H]3CC[C@@H](NCc4cc5c(cn4)OCS5)CO3)c2n1` [Example 9, (1S)-2-(7-fluoro-2-methoxy-quinolin-8-yl)-1-{(2S,5R)-5-[(3-oxa-1-thia-5-aza-indan-6-ylmethyl)-amino]-tetrahydro-pyran-2-yl}-ethanol], at most 0.031 µg/mL.
Still for that read-out and setting: to `COc1ccc2ncc(F)c(C[C@H](O)[C@@H]3CC[C@@H](NCc4cc5c(cn4)OCCC5)CO3)c2n1` [Example 10, (1S)-1-{(2S,5R)-5-[(3,4-dihydro-2H-pyrano[2,3-c]pyridin-6-ylmethyl)-amino]-tetrahydro-pyran-2-yl}-2-(3-fluoro-6-methoxy-[1,5]naphthyridin-4-yl)-ethanol] belongs at most 0.031 µg/mL; to `COc1ccc2ncc(F)c(C[C@H](O)[C@@H]3CC[C@@H](NCc4cc5c(nn4)OCCS5)CO3)c2n1` [Example 11, (1S)-1-{(2S,5R)-5-[(6,7-dihydro-8-oxa-5-thia-1,2-diaza-naphthalen-3-ylmethyl)-amino]-tetrahydro-pyran-2-yl}-2-(3-fluoro-6-methoxy-[1,5]naphthyridin-4-yl)-ethanol], at most 0.031 µg/mL.
`COc1cnc2ccc(F)c(C[C@H](O)[C@@H]3CC[C@@H](NCc4cc5c(cn4)OCCO5)CO3)c2n1` [Example 12, (1S)-1-{(2S,5R)-5-[(2,3-dihydro-[1,4]dioxino[2,3-c]pyridin-7-ylmethyl)-amino]-tetrahydro-pyran-2-yl}-2-(6-fluoro-3-methoxy-quinoxalin-5-yl)-ethanol] yielded an MIC of at most 0.031 µg/mL.
In turn, `COc1cnc2ccc(F)c(C[C@H](O)[C@@H]3CC[C@@H](NCc4cc5c(nn4)OCCO5)CO3)c2n1` [Example 13, (1S)-1-{(2S,5R)-5-[(6,7-dihydro-[1,4]dioxino[2,3-c]pyridazin-3-ylmethyl)-amino]tetrahydro-pyran-2-yl}-2-(6-fluoro-3-methoxy-quinoxalin-5-yl)-ethanol] displayed an MIC of at most 0.031 µg/mL.
On the same count and under the same terms, in the case of `COc1cnc2ccc(F)c(C[C@H](O)[C@@H]3CC[C@@H](NCc4cc5c(cn4)OCCS5)CO3)c2n1` [Example 14, (1S)-1-{(2S,5R)-5-[(2,3-dihydro-4-oxa-1-thia-6-aza-naphthalen-7-ylmethyl)-amino]-tetrahydro-pyran-2-yl}-2-(6-fluoro-3-methoxy-quinoxalin-5-yl)-ethanol] it was at most 0.031 µg/mL; in that of `COc1cnc2ccc(F)c(C[C@H](O)[C@@H]3CC[C@@H](NCc4cc5c(nn4)OCCS5)CO3)c2n1` [Example 15, (1S)-1-{(2S,5R)-5-[(6,7-dihydro-8-oxa-5-thia-1,2-diaza-naphthalen-3-ylmethyl)-amino]-tetrahydro-pyran-2-yl}-2-(6-fluoro-3-methoxy-quinoxalin-5-yl)-ethanol], at most 0.031 µg/mL; in that of `[2H]C(N[C@@H]1CC[C@@H]([C@@H](O)Cc2c(F)cnc3ccc(OC)nc23)OC1)c1cc2c(cn1)OCCO2` (stereo partly drawn) [Example 16, (1S)-1-((2S,5R)-5-(((2,3-dihydro-[1,4]dioxino[2,3-c]pyridin-7-yl)methyl-d1)amino)tetrahydro-2H-pyran-2-yl)-2-(3-fluoro-6-methoxy-1,5-naphthyridin-4-yl)ethanol], at most 0.031 µg/mL.
Regarding `[2H]C(N[C@@H]1CC[C@@H]([C@@H](O)Cc2c(F)cnc3ccc(OC)nc23)OC1)c1cc2c(cn1)OCCS2` (stereo partly drawn) [Example 19, (S)-1-((2S,5R)-5-(((2,3-dihydro-[1,4]oxathiino[2,3-c]pyridin-7-yl)methyl-d1)amino)tetrahydro-2H-pyran-2-yl)-2-(3-fluoro-6-methoxy-1,5-naphthyridin-4-yl)ethanol], the minimum inhibitory concentration (MIC) was at most 0.031 µg/mL.
As to `[2H]C(c1c(F)cnc2ccc(OC)nc12)[C@H](O)[C@@H]1CC[C@@H](NCc2cc3c(cn2)OCCO3)CO1` (stereo partly drawn) [Example 20, (1S)-1-((2S,5R)-5-(((2,3-dihydro-[1,4]dioxino-[2,3-c]pyridin-7-yl)methyl)amino)tetrahydro-2H-pyran-2-yl)-2-(3-fluoro-6-methoxy-1,5-naphthyridin-4-yl)ethanol-2-d1], the MIC is at most 0.031 µg/mL.
Compound `[2H]C(c1c(F)cnc2ccc(OC)nc12)[C@H](O)[C@@H]1CC[C@@H](NCc2cc3c(cn2)OCCS3)CO1` (stereo partly drawn) [Example 21, (S)-1-((2S,5R)-5-(((2,3-dihydro-[1,4]oxathiino[2,3-c]pyridin-7-yl)methyl)amino)tetrahydro-2H-pyran-2-yl)-2-(3-fluoro-6-methoxy-1,5-naphthyridin-4-yl)ethanol-2-d1] came in with an MIC of at most 0.031 µg/mL.
Same read-out and setting: to `[2H]C(N[C@@H]1CC[C@@H]([C@@H](O)Cc2c(F)cnc3ccc(OC)nc23)OC1)c1cc2c(nn1)OCCS2` (stereo partly drawn) [Example 23, (S)-1-{(2S,5R)-5-[(6,7-dihydro-8-oxa-5-thia-1,2-diaza-naphthalen-3-ylmethyl-d1)-amino]-tetrahydro-pyran-2-yl}-2-(3-fluoro-6-methoxy-[1,5]naphthyridin-4-yl)-ethanol] belongs at most 0.031 µg/mL.
For `[2H]C([2H])(N[C@@H]1CC[C@@H]([C@@H](O)Cc2c(F)cnc3ccc(OC)nc23)OC1)c1cc2c(cn1)OCCO2` [Example 24, (1S)-1-((2S,5R)-5-(((2,3-dihydro-[1,4]dioxino [2,3-c]pyridin-7-yl)methyl-d2)amino)tetrahydro-2H-pyran-2-yl)-2-(3-fluoro-6-methoxy-1,5-naphthyridin-4-yl)ethanol], the MIC is at most 0.031 µg/mL.

The same data set, now with this note: comparison table of compounds of formula ICOMP.
Consider `COc1ccc2nccc(C[C@H](O)[C@@H]3CC[C@@H](NCc4cc5c(cn4)OCCO5)CO3)c2n1` [Example 1, (1S)-1-{(2S,5R)-5-[(2,3-dihydro-[1,4]dioxino[2,3-c]pyridin-7-ylmethyl)-amino]tetrahydro-pyran-2-yl}-2-(6-methoxy-[1,5]naphthyridin-4-yl)-ethanol], for which the “MIC for S. aureus A798” value was “≦0.031 mg/l”.

Staying with this data set, now noted: microdilution.
Consider “(1S)-1-((2S,5R)-5-(((2,3-dihydro-[1,4]dioxino-2,2,3,3-d4-[2,3-c]pyridin-7-yl)methyl)amino)tetrahydro-2H-pyran-2-yl)-2-(3-fluoro-6-methoxy-1,5-naphthyridin-4-yl)ethanol [Example 17]”, for which the “MIC for S. aureus A798” value was “≦0.031 mg/l”.
For “(S)-((1S,5R)-5-(((2,3-dihydro-[1,4]oxathiino[2,3-c]pyridin-7-yl)methyl)amino)tetrahydro-2H-pyran-2-yl)-2-(3-fluoro-6-methoxy-1,5-naphthyridin-4-yl)ethanol-1-d1 [Example 22]”, the “MIC for S. aureus A798” value is “≦0.031 mg/l”.

In another data set the target is hERG K+ channel (Homo sapiens, UniProt Q12809). The data set can be described thus: In vitro blocking of hERG K+ channels (QPatch automated patch-clamp, CHO-K1 cells). The class given is cell-based. To be noted: pH 7.4, at 10 μM, CHOhERG cells, 4 minutes of stimulation, average block on two cells. How it is done: hERG K^+ channels have been cloned from human heart and recombinant channels are stably expressed in CHO-K1 cells (CHOhERG). These cells have been purchased from bSys GmbH (CH-4052 Basel, Switzerland) and are grown in 150 mL culture flasks at 37° C. in 5% CO2. When the cells are ˜100% confluent, they are detached with 0.25% trypsin-EDTA solution and placed in the cell preparation unit of a QPatch automated patch-clamp robot (Sophion Bioscience A/S, 2750 Ballerup, Denmark). Currents through the hERG K^+ channels (IKhERG) are elicited using the following buffer solutions and voltage protocol: • extracellular solution (in mM): [NaCl]=150; [KCl]=4; [CaCl2]=1.2; [MgCl2]=1; [HEPES]=10; pH adjusted to 7.4 with NaOH; • intracellular solution (in mM): [KCl]=140; [NaCl]=10; [MgCl2]=1; [HEPES]=10; [EGTA]=5; [Mg-ATP]=5; […] After the cells have stabilized for a few minutes and the currents are steady, the amplitude of IKhERG is recorded under control conditions. Thereafter, the QPatch robot applies the test compound to the cell at the test concentration and, after 4 minutes of stimulation, the amplitude of IKhERG is recorded under test conditions. The ratio of the two amplitudes is used to define a fractional block and the average block on two cells is used to provide the effect of a given concentration (e.g. 10 μM). If, for a given test compound, a sufficient number of concentrations were tested, an apparent IC50 for inhibition of IKhERG is calculated.
Chain of hERG K+ channel (Q12809 whole entry): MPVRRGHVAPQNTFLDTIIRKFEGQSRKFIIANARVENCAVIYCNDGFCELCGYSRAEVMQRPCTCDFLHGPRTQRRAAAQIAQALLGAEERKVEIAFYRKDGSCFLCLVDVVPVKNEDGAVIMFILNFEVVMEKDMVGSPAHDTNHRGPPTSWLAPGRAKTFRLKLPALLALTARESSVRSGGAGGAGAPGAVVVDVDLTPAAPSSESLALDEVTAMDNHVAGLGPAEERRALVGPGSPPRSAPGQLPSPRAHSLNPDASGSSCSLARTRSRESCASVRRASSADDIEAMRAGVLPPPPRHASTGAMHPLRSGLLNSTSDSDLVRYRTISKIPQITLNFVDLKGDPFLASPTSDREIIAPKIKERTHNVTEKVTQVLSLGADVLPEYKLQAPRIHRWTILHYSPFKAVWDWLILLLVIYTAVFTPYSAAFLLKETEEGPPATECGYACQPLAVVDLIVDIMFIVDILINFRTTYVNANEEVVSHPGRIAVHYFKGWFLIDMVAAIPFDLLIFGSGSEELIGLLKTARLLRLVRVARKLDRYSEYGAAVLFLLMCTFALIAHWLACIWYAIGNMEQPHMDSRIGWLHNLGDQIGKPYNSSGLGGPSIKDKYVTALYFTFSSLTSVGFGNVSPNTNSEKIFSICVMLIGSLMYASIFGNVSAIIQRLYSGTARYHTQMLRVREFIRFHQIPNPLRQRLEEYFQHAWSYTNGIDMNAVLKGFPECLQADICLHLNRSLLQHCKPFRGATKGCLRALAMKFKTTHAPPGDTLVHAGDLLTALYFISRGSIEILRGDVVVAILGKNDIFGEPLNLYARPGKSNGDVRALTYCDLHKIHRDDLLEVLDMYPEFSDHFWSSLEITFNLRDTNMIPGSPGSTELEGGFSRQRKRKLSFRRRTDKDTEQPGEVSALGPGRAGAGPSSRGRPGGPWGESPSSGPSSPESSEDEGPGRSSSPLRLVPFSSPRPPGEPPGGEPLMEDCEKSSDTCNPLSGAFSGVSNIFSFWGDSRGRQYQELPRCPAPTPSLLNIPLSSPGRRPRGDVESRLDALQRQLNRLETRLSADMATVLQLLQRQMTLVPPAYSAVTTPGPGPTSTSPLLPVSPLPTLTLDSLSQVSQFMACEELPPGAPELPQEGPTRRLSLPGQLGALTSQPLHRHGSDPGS
For orientation: Block of hERG is tested as a sign of cardiac risk.
As usually defined, the inhibition is the drop in the measured response relative to a control, in per cent. High values mean a strong effect, low ones a weak effect. For `COc1ccc2nccc(C[C@H](O)[C@@H]3CC[C@@H](NCc4cc5c(cn4)OCCO5)CO3)c2n1` [Example 1, (1S)-1-{(2S,5R)-5-[(2,3-dihydro-[1,4]dioxino[2,3-c]pyridin-7-ylmethyl)-amino]tetrahydro-pyran-2-yl}-2-(6-methoxy-[1,5]naphthyridin-4-yl)-ethanol], the inhibition at 4 min, 10 µM is 26%.

The values above are taken from patent US8211890B2, “5-amino-2-(1-hydroxy-ethyl)-tetrahydropyran derivatives” (Actelion Pharmaceuticals, priority 2008, dated 2012).
